Assay results: publication PMC10041525, “New Dual Inhibitors of Bacterial Topoisomerases with Broad-Spectrum Antibacterial Activity and In Vivo Efficacy against Vancomycin-Intermediate Staphylococcus aureus” (Journal of Medicinal Chemistry, 2023)
In brackets after ≈: the same amount, converted by molar mass. Read-outs that look alike come from different tables or passages of the source.

Columns and labels:
Type in all cases: cell-based
[1] = system: 100 A. baumannii strains (50 MDR, 50 non-MDR); assay: MIC broth microdilution at IHMA Europe, panel of 100 strains; conditions: for MIC / MIC50 / MIC90: Acinetobacter baumannii; for MIC50: read-out: MIC 50; for MIC90: read-out: MIC 90
E. coli ATCC 25922 = assay: IHMA QC MIC; conditions: Escherichia coli, ATCC25922; read-out: MIC (QC, repeated tests)
[2] = system: 3 sensitive and 7 MDR A. baumannii clinical isolates; assay: MIC, Hungarian clinical isolates and controls (384-well); conditions: n=10; MIC […] µg/mL

MIC ([1]; A. baumannii IHMA 2177232, Lithuania 2020, MDR, read-out: MIC): 32 µg/mL (≈ 66.6 µM) | MIC ([1]; A. baumannii IHMA 2177489, Lithuania 2020, MDR, read-out: MIC): > 32 µg/mL | MIC ([1]; A. baumannii IHMA 2178574, Ukraine 2020, Non-MDR, read-out: MIC): ≤ 0.25 µg/mL | MIC ([1]; A. baumannii IHMA 2180134, Malaysia 2020, Non-MDR, read-out: MIC): 1 µg/mL (≈ 2.08 µM) | MIC ([1]; A. baumannii IHMA 2180142, Malaysia 2020, MDR, read-out: MIC): > 32 µg/mL | MIC ([1]; A. baumannii IHMA 2181370, Morocco 2020, MDR, read-out: MIC): > 32 µg/mL | MIC ([1]; A. baumannii IHMA 2183849, Argentina 2020, Non-MDR, read-out: MIC): 1 µg/mL (≈ 2.08 µM) | MIC ([1]; A. baumannii IHMA 2184382, Japan 2020, Non-MDR, read-out: MIC): 1 µg/mL (≈ 2.08 µM) | MIC ([1]; A. baumannii IHMA 2193375, Venezuela 2020, MDR, read-out: MIC): > 32 µg/mL | MIC ([1]; A. baumannii IHMA 2193485, Venezuela 2020, Non-MDR, read-out: MIC): 1 µg/mL (≈ 2.08 µM) | MIC ([1]; A. baumannii IHMA 2193607, Venezuela 2020, MDR, read-out: MIC): > 32 µg/mL | MIC ([1]; A. baumannii IHMA 2196914, South Africa 2020, MDR, read-out: MIC): 32 µg/mL (≈ 66.6 µM) | MIC ([1]; A. baumannii IHMA 2196959, South Africa 2020, MDR, read-out: MIC): > 32 µg/mL | MIC ([1]; A. baumannii IHMA 2203763, Spain 2020, MDR, read-out: MIC): > 32 µg/mL | MIC ([1]; A. baumannii IHMA 2205144, Korea, South 2020, MDR, read-out: MIC): 32 µg/mL (≈ 66.6 µM) | MIC ([1]; A. baumannii IHMA 2206459, Taiwan 2020, MDR, read-out: MIC): > 32 µg/mL | MIC ([1]; A. baumannii IHMA 2206507, Taiwan 2020, Non-MDR, read-out: MIC): 0.5 µg/mL (≈ 1.04 µM) | MIC ([1]; A. baumannii IHMA 2215307, Hong Kong 2020, Non-MDR, read-out: MIC): 1 µg/mL (≈ 2.08 µM) | MIC ([1]; A. baumannii IHMA 2216586, Taiwan 2020, MDR, read-out: MIC): 32 µg/mL (≈ 66.6 µM) | MIC ([1]; A. baumannii IHMA 2223200, Colombia 2020, Non-MDR, read-out: MIC): 1 µg/mL (≈ 2.08 µM) | MIC ([1]; A. baumannii IHMA 2224017, Panama 2020, MDR, read-out: MIC): 32 µg/mL (≈ 66.6 µM) | MIC ([1]; A. baumannii IHMA 2224303, Panama 2020, Non-MDR, read-out: MIC): 4 µg/mL (≈ 8.32 µM) | MIC ([1]; A. baumannii IHMA 2231797, Greece 2020, MDR, read-out: MIC): > 32 µg/mL | MIC ([1]; A. baumannii IHMA 2233099, Guatemala 2020, MDR, read-out: MIC): > 32 µg/mL | MIC ([1]; A. baumannii IHMA 2233430, Kazakhstan 2020, MDR, read-out: MIC): > 32 µg/mL | MIC ([1]; A. baumannii IHMA 2238964, Thailand 2020, MDR, read-out: MIC): > 32 µg/mL | MIC ([1]; A. baumannii IHMA 2239052, Thailand 2020, Non-MDR, read-out: MIC): 0.5 µg/mL (≈ 1.04 µM) | MIC ([1]; A. baumannii IHMA 2261633, Canada 2020, Non-MDR, read-out: MIC): 0.5 µg/mL (≈ 1.04 µM) | MIC ([1]; A. baumannii IHMA 2274234, South Africa 2020, MDR, read-out: MIC): 32 µg/mL (≈ 66.6 µM) | MIC ([1]; A. baumannii IHMA 2274364, South Africa 2020, MDR, read-out: MIC): > 32 µg/mL | MIC ([1]; A. baumannii IHMA 2275237, Chile 2020, Non-MDR, read-out: MIC): 1 µg/mL (≈ 2.08 µM) | MIC ([1]; A. baumannii IHMA 2275751, Jordan 2020, MDR, read-out: MIC): > 32 µg/mL | MIC ([1]; A. baumannii IHMA 2316205, United States 2020, MDR, read-out: MIC): > 32 µg/mL | MIC ([1]; MDR n = 50, read-out: MAX (maximum MIC; all strains inhibited)): > 32 µg/mL | MIC50 ([1]; MDR n = 50): > 32 µg/mL | MIC90 ([1]; MDR n = 50): > 32 µg/mL | MIC ([1]; all isolates n = 100, read-out: MAX (maximum MIC; all strains inhibited)): > 32 µg/mL | MIC50 ([1]; all isolates n = 100): 8 µg/mL (≈ 16.6 µM) | MIC90 ([1]; all isolates n = 100): > 32 µg/mL | MIC ([1]; all isolates n = 100, read-out: MIN (minimum MIC)): ≤ 0.25 µg/mL | MIC ([1]; non-MDR n = 50, read-out: MAX (maximum MIC)): 8 µg/mL (≈ 16.6 µM) | MIC50 ([1]; non-MDR n = 50): 1 µg/mL (≈ 2.08 µM) | MIC90 ([1]; non-MDR n = 50): 4 µg/mL (≈ 8.32 µM) | MIC ([1]; non-MDR n = 50, read-out: MIN (minimum MIC)): ≤ 0.25 µg/mL | MIC (E. coli ATCC 25922): ≤ 0.25 µg/mL | Cumulative % at MIC [2]: 20%
SMILES: CO/N=C(\C(=O)N[C@@H]1C(=O)N2C(C(=O)[O-])=C(C[N+]3(C)CCCC3)CS[C@H]12)c1csc(N)n1 [Cefepime, cefepime]
Percentage I ([1]; MDR n = 50): 6% | Percentage S ([1]; MDR n = 50): 0% | Percentage I ([1]; all n = 100, CLSI breakpoints): 3% | Percentage R ([1]; all n = 100, CLSI breakpoints): 47% | Percentage S ([1]; all n = 100, CLSI breakpoints): 50% | Percentage I ([1]; non-MDR n = 50): 0% | Percentage R ([1]; non-MDR n = 50): 0%
